Results on eight compounds are retold here after patent publication US6399562B2, “Solvent compositions” (Ausimont S.p.A., priority 2000, dated 2002).

Where two headings read alike, the source gives them in different places.

Data set [1] in a line: Evaluation of the azeotropic behaviour: boiling temperature at 1.013 bar. The data set is classed as physicochemical. The following applies: pressure of 1.013 absolute bar. As to the method: The mixture of known composition and weight is introduced into a small glass cell, previously evacuated, having an internal volume equal to about 20 cm^3, equipped with metal connections, feeding valve and with a pressure transducer to evaluate the system vapour pressure.
The filling ratio by volume is initially equal to about 0.8% by v.
The temperature is measured close to the equilibrium cell by a thermometer the accuracy of which is equal to +/−0.01° C.; particular attention has been paid so that the external temperature measured in the bath is really the internal one of the cell.
By changing the composition of the mixture it is possible to evaluate possible deviations with respect to the ideality and therefore to identify the azeotropic composition which, as said, will be characterized by an absolute minimum or maximum with respect to the pure components.

Data set [2] in a line: solubility of propellants in solvent compositions for aerosol applications. It is filed as physicochemical. As to the method: The solubility of HFC 134a, HFC 227ea and HFC 236ea with some solvent compositions for aerosol applications for the cleaning of electronic components has been studied. The solvent composition is placed in a glass test tube having thick walls, resistant to high pressures, and closed at an end by a metal valve. After cooling, the propellant is fed to the test tube and mixed with the solvent mixture. The system is introduced in a thermostatic bath and heated up to 0°, 25° and 50° C. The complete solubility of the propellant in the solvent composition used for the test has been visually observed. The solubility results of the used propellants in the solvent compositions, at the above three different temperatures, are reported in Table 7.

Data set [3] is described as follows: Preliminary studies relating to acute toxicity. It is filed as in vivo.
The test system of data set [4] is rat. In words: Acute toxicity in rat by os, LD50.
The subject of data set [5] is rat. Put plainly: Acute toxicity in rat by inhalation, LC50.
A short description of data set [6]: chemical-physical properties of the hydrofluoropolyether.
For data set [7] the following is noted: background statement; cited from earlier work.
The nature of data set [8]: Removal of oily products from printed circuits, oil (1). The settings on record: 5 minutes of dipping. Here is the method:
(§1) The removal capability of oily products from printed circuits has been checked according to the following procedure:
(§2) a known amount of an oily product is uniformly spread on the surface of a printed circuit having 35×9 mm sizes; 0.100 g of oil are placed only on a single surface of the circuit, then the article is dipped into the solution to be tested.
(§3) After 5 minutes of dipping, the circuit is allowed to dry for additional 5 minutes at room temperature so as to remove the solvent traces and then is weighed again on an analytical balance.
[…] The compositions are placed in a vessel equipped with a condenser which recovers the vapour of the boiling solution.
(§4) In all the tests 30 ml of the solvent solution have been used.
(§5) The results are reported in Table 6 and are expressed as removed oil percentage.

Data set [9] can be described thus: Removal of oily products from printed circuits, oil (2). The following applies: 5 minutes of dipping. As to the method: as §1, §2, §3
(§6) Tests of the solvent mixtures are carried out close to the boiling temperature. The compositions are placed in a vessel equipped with a condenser which recovers the vapour of the boiling solution.
as §4, §5

A short description of data set [10]: Removal of oily products from printed circuits, oil (3). The following applies: 5 minutes of dipping. As to the method:
as §1, §2, §3, §6, §4, §5

The nature of data set [11]: Removal of oily products from printed circuits, oil (4). The following applies: 5 minutes of dipping. As to the method: as §1, §2, §3, §6, §4, §5

With `COC(C)=O` [Methyl-acetate, methyl-acetate], the “Boiling T of pure Component B” value in data set [1] is “Boiling T = 55.78 °C”.

For `FC(C(F)(F)F)C(F)(F)F` [HFC 227ea, 1,1,1,2,3,3,3-heptafluoropropane], the “solubility of the propellant in the solvent composition” value (“solubility of the propellant” below) in [2] (in HCF2OCF2CF2OCF2H/Methyl-acetate (75.0) (25.0), propellant 53.2 % by wt, 0 ° C.) is given as “S”; in data set [2] (in HCF2OCF2CF2OCF2H/Methyl-acetate (75.0) (25.0), propellant 53.2 % by wt, 25 ° C.), “S”; in data set [2] (in HCF2OCF2CF2OCF2H/Methyl-acetate (75.0) (25.0), propellant 53.2 % by wt, 50 ° C.), “S”.

On to `CCCBr` [1-Bromo-propane, 1-bromo-propane], for which the “Boiling T of pure Component B” value in [1] is “Boiling T = 69.60 °C”.

As for `FCC(F)(F)F` [HFC 134a, 1,1,1,2-tetrafluoroethane], the “solubility of the propellant” value in [2] (in HCF2OCF2CF2OCF2H/Bromo-propane (75.0) (25.0), propellant 57.2 % by wt, 0 ° C.) is “S”; in data set [2] (in HCF2OCF2CF2OCF2H/Bromo-propane (75.0) (25.0), propellant 57.2 % by wt, 25 ° C.), “S”; in data set [2] (in HCF2OCF2CF2OCF2H/Bromo-propane (75.0) (25.0), propellant 57.2 % by wt, 50 ° C.), “S”; in [2] (in HCF2OCF2CF2OCF2H/Isopentane (45.0) (55.0), propellant 51.2 % by wt, 0 ° C.), “S”; in data set [2] (in HCF2OCF2CF2OCF2H/Isopentane (45.0) (55.0), propellant 51.2 % by wt, 25 ° C.), “S”; in data set [2] (in HCF2OCF2CF2OCF2H/Isopentane (45.0) (55.0), propellant 51.2 % by wt, 50 ° C.), “S”. In addition, the “solubility of the propellant” value in data set [2] (in HCF2OCF2CF2OCF2H/Methyl-acetate (75.0) (25.0), propellant 51.3 % by wt, 0 ° C.) is reported as “S”; in data set [2] (in HCF2OCF2CF2OCF2H/Methyl-acetate (75.0) (25.0), propellant 51.3 % by wt, 25 ° C.) it was “S”; in data set [2] (in HCF2OCF2CF2OCF2H/Methyl-acetate (75.0) (25.0), propellant 51.3 % by wt, 50 ° C.) it was “S”.

Turning to `FC(F)C(F)C(F)(F)F` (centres unmarked) [HFC 236ea, 1,1,1,2,3,3-hexafluoropropane], the “solubility of the propellant” value in data set [2] is “S”.

With `FC(F)OC(F)(F)C(F)(F)OC(F)F` [HCF2OCF2CF2OCF2H, 1-difluoromethoxy-1,1,2,2-tetrafluoroethyl difluoromethyl ether], in data set [3], the “acute toxicity, biological activity” value is listed as “low biological activity”. The “Acute toxicity in rat by os, LD50” value with rat [4] was >5,000 ppmv/4 hours. Also, in the data set with rat [5], the “Acute toxicity in rat by inhalation, LC50” value is >32,000 ppmv/4 hours. Besides, in data set [6], the “dehydrofluorination reactions (chemical stability)” value is “does not undergo dehydrofluorination reactions”, the “Isotherm evaporation rate at 20° C.” value is reported as 0.6 mg/min, the “Surface tension at 20° C.” value was 15.5 dynes/cm and the “Liquid density at 25° C.” value was 1.60 g/mL. Also, the Flammability in air result in data set [6] is “non”. In data set [6] (at 1.013 bar), this compound gave a Boiling temperature of 58.21 °C and an Evaporation latent heat of 139 kJ/kg.

As to `CC(F)(Cl)Cl` [HCFC 141b], the flammability entry in data set [7] was “moderately flammable”.

Consider `FC(F)(Cl)C(F)(Cl)Cl` [CFC 113, 1,1,2-trichloro-1,2,2-trifluoroethane], for which the “Percentage of removed oil, oil type (1)” value in data set [8] (23 ° C.) and in data set [8] (47 ° C.) was 100 % by weight each time. Besides, the “Percentage of removed oil, oil type (2)” value is 99.5 % by weight in data set [9] (23 ° C.) and 100 % by weight in [9] (47 ° C.). The “Percentage of removed oil, oil type (3)” value in data set [10] (23 ° C.) and in [10] (47 ° C.) was 100 % by weight in each case. In addition, the “Percentage of removed oil, oil type (4)” value in data set [11] (23 ° C.) and in data set [11] (47 ° C.) was 100 % by weight each time. Besides, the “Acute toxicity in rat by os, LD50” value in the data set with rat [4] was 43,000 ppmv/4 hours. Besides, the “Acute toxicity in rat by inhalation, LC50” value with rat [5] is given as 50,000 ppmv/4 hours. Moreover, the “Isotherm evaporation rate at 20° C.” value in data set [6] is listed as 1 mg/min. In addition, the “Surface tension at 20° C.” value in data set [6] is reported as 18.1 dynes/cm. For the same compound, the “Liquid density at 25° C.” value in [6] is 1.56 g/mL. In data set [6] (at 1.013 bar), this compound had an Evaporation latent heat of 144 kJ/kg. In addition, the Flammability in air result in data set [6] is given as “non”.
